Assay results: EP4692114A1, “CALCITONIN ANALOGUE, AND DERIVATIVE THEREOF AND USE THEREOF” (Hangzhou Sciwind Biosciences Co., Ltd., priority 2023, dated 2024)
*1 amine or outer side, *2 acyl side, *3 side chain or, on linkers, in order; H or OH if unused. Where a SMILES comes first, the peptide text is derived from it. The star is where a group is joined. C20 diacid = O=C(O)CCCCCCCCCCCCCCCCCCC(=O)*; γGlu = O=C(O)[C@H](CCC(=O)[*:2])N[*:1]

Legend:
[1] = Study of weight change and food consumption in rats; type: in vivo, SD (Sprague Dawley) rats; conditions: SD rats, subcutaneous, 10 nmol/kg; for Effect on reducing food intake: accumulated food intake recorded every 24 hours (FIGs. 7 and 9); for Effect on reducing body weight: recorded every 24 hours (FIGs. 6 and 8)
Source text: SD (Sprague Dawley) rats weighing 200-250 g were used for this study. The rats were received at least 10-14 days before the study began such that they could accommodate to the experimental environment. After arrival, they were exposed to a reversed light/dark cycle (i.e., lights switched off in daytime and on in nighttime) for two weeks and were individually housed for the first week so as to ensure high data accuracy and test sensitivity. Throughout the acclimation and experiment period, the rats had free access to food and water. 5-8 rats were assigned to each testing group for the derivatives and were subcutaneously administered the derivatives at a dose of 10 nmol/kg or a vehicle, and the dosing timepoint was recorded for each group. After dosing, the rats were put back into cages where they were housed and could have access to food and water. Food consumption and weight change of the rats were recorded online or manually every 24 hours.

[2] = biological target: T1, human amylin receptors (Homo sapiens, UniProt O60896+P30988); experiment: Luciferase assay of amylin (amylin receptor/CRE-luc cell line); type: cell-based; conditions: stably transfected amylin receptor/CRE-luc CHO cells (CHO-K1/Gal5/AMY3), 24 hours incubation, luciferase readout;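 note: agonist potency from luminescence of cAMP response element-driven luciferase, EC50 derived from a standard curve of signal versus compound concentration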
T1 sequence (P30988 25-474): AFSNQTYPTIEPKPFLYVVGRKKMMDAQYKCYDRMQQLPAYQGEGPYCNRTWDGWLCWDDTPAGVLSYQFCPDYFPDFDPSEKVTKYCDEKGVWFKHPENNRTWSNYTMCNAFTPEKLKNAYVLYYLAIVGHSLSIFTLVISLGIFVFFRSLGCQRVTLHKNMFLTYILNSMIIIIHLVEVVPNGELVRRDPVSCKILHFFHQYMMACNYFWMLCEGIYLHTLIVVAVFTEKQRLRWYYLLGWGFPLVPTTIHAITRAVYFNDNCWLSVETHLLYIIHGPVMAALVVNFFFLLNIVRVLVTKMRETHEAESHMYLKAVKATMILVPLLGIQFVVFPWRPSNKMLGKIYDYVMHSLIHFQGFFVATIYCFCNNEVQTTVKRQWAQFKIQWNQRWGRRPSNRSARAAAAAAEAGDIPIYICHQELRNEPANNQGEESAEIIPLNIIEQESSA
T1 sequence (O60896 24-148 partner): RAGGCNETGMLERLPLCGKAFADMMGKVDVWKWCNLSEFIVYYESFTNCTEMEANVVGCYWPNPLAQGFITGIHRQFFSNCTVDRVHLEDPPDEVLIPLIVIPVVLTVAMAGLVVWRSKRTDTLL

Row | EC50 [2] [pM] | Structure (SMILES) | Effect on reducing food intake [1] | Effect on reducing body weight [1]
1 | – | CC(C)C[C@H](NC(=O)[C@H](CCCNC(=N)N)NC(=O)CNC(=O)[C@H](CC(C)C)NC(=O)[C@@H](NC(=O)[C@H](C)NC(=O)[C@@H](NC(=O)[C@H](CO)NC(=O)[C@H](CC(C)C)NC(=O)[C@H](CCC(N)=O)NC(=O)[C@H](CO)NC(=O)[C@H](C)NC(=O)CC[C@H](NC(=O)CCCCCCCCCCCCCCCCCCC(=O)O)C(=O)O)[C@@H](C)O)C(C)C)C(=O)N[C@@H](CO)C(=O)N[C@@H](CCC(N)=O)C(=O)N[C@@H](CCC(=O)O)C(=O)N[C@@H](CC(C)C)C(=O)N[C@@H](Cc1c[nH]cn1)C(=O)N[C@@H](CCCNC(=N)N)C(=O)N[C@@H](CC(C)C)C(=O)N[C@@H](CCC(N)=O)C(=O)N[C@@H](CC(=O)O)C(=O)N[C@@H](CC(C)C)C(=O)N1CCC[C@H]1C(=O)N[C@@H](CCCNC(=N)N)C(=O)N[C@H](C(=O)N[C@@H](CC(=O)O)C(=O)N[C@H](C(=O)NCC(=O)N[C@@H](CO)C(=O)NCC(=O)N[C@@H](CO)C(=O)N1CCC[C@H]1C(N)=O)C(C)C)[C@@H](C)O [M18] ({C20 diacid-γGlu}-ASQLSTAVLGRLSQELHRLQDLPRTDVGSGSP-NH2) | particularly effective | particularly effective
2 | 17 | CC(C)C[C@H](NC(=O)[C@H](CCCNC(=N)N)NC(=O)CNC(=O)[C@H](CC(C)C)NC(=O)[C@@H](NC(=O)[C@H](C)NC(=O)[C@@H](NC(=O)[C@H](CO)NC(=O)[C@H](CC(C)C)NC(=O)[C@H](CCC(N)=O)NC(=O)[C@H](CO)NC(=O)[C@H](C)NC(=O)CC[C@H](NC(=O)CCCCCCCCCCCCCCCCCCC(=O)O)C(=O)O)[C@@H](C)O)C(C)C)C(=O)N[C@@H](CO)C(=O)N[C@@H](CCC(N)=O)C(=O)N[C@@H](CCC(=O)O)C(=O)N[C@@H](CC(C)C)C(=O)N[C@@H](Cc1c[nH]cn1)C(=O)N[C@@H](CCCNC(=N)N)C(=O)N[C@@H](CC(C)C)C(=O)N[C@@H](CCC(N)=O)C(=O)N[C@@H](CC(=O)O)C(=O)N[C@@H](Cc1ccc(O)cc1)C(=O)N1CCC[C@H]1C(=O)N[C@@H](CCCNC(=N)N)C(=O)N[C@H](C(=O)N[C@@H](CC(=O)O)C(=O)N[C@H](C(=O)NCC(=O)N[C@@H](C)C(=O)N[C@@H](CCC(=O)O)C(=O)N[C@@H](CO)C(=O)N1CCC[C@H]1C(N)=O)C(C)C)[C@@H](C)O [M20] ({C20 diacid-γGlu}-ASQLSTAVLGRLSQELHRLQDYPRTDVGAESP-NH2) | prominent effect | prominent effect
